Test results: patent US10106577B2, “Agonists of neurotrophin receptors and their use as medicaments” (BIONURE FARMA, S.L., priority 2010, dated 2018)

Key:
[1] = system: NGF-receptors (TrkA and p75) on PC12 cells; experiment: Cytometry binding assay, competition NGF/G79-FITC in PC12; settings: G79-FITC 100 ng/ml; NGF 0-10-20-50-100 ng/ml
Description: (§1) In order to assess the binding of G79 to the TrkA (PC12 cells) and TrkB receptors (SH-SY5Y), we performed competitive binding assays by flow cytometry. In order to assess the binding competition between p75 and TrkA, PC12 cells expressing both TrkA and p75 receptors were cultivated in normal growth medium. After detaching cells by trypsin solution, 200,000 cells/well were added to tubes for the following incubations. One tube contains control untreated cells. In the other tubes, cells were pre-incubated for 45 minutes with different concentrations of NGF (0-10-20-50-100 ng/ml), that can directly bind both TrkA and p75 receptors, blocking the possible binding of G79 if it competes for the same receptors. Then, without washing the cells, G79 conjugated with FITC fluorescence (100 ng/ml) was added and so incubated the cells for 1 hour. Samples were read in a cytometer (FCAScan).
(§2) To detect the binding separately on both receptors, a prior incubation of cells (before NGF incubation) with blocking antibodies was made. The cells were preincubated for 1 hour with blocking antibody anti-p75 (1:100; Chemicon Int.), to detect the binding on TrkA, or blocking antibody anti-TrkA (1:200; AbCam) to detect the binding on p75. […] All the results are expressed as mean channel fluorescence (MCF), which is a measure of the cell surface fluorescence produced by G79-FITC binding.

p75 receptor = target: T1, p75 receptor (Rattus norvegicus, UniProt P07174); experiment: Cytometry binding assay in PC12 with anti-TrkA antibody; settings: cells pre-incubated with anti-TrkA antibody; growing NGF
T1 construct: PC12 cells expressing both TrkA and p75 receptors were cultivated in normal growth medium; endogenous in cells; host or cells: PC12
T1 sequence (P07174 30-425): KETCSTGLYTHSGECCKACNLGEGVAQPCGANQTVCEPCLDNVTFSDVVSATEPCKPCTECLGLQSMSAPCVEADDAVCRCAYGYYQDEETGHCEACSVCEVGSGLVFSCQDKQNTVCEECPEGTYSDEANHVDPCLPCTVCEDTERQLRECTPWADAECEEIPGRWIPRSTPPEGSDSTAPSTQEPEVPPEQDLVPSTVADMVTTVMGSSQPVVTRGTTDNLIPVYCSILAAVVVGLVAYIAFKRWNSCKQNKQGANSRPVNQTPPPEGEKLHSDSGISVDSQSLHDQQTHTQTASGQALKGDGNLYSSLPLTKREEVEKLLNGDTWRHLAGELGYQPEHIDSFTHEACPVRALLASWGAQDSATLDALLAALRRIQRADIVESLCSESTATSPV
Description: as §1, §2

TrkA = target: T2, TrkA (Rattus norvegicus, UniProt P35739); experiment: Cytometry binding assay in PC12 with antibody anti-p75; settings: pre-incubation with the antibody anti-p75; growing NGF
T2 construct: PC12 cells expressing both TrkA and p75 receptors were cultivated in normal growth medium; endogenous in cells; host or cells: PC12
T2 sequence (P35739 33-799): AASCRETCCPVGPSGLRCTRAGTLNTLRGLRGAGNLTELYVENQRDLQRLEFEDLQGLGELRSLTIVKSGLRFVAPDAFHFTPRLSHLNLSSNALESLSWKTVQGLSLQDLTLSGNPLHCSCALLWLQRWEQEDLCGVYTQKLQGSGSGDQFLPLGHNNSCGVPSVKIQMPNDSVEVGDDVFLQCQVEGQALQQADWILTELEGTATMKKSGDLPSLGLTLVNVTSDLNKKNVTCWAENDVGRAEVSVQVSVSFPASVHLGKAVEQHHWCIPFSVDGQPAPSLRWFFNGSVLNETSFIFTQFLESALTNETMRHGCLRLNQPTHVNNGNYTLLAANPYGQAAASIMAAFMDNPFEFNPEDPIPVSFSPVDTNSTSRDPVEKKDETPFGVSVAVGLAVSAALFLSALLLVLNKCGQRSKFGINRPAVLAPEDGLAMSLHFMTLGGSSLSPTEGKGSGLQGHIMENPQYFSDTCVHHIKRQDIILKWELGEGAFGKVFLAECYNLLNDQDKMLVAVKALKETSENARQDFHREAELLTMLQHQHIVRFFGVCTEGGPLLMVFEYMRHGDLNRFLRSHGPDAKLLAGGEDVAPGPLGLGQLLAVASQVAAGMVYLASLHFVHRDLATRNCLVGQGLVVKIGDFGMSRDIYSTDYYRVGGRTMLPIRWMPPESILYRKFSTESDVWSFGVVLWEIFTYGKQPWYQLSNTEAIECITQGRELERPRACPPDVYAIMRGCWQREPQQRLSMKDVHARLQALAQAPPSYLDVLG
Description: as §1, §2

iNOS = experiment: Neuroinflammation in vitro model, organotypic cerebellar culture challenged with LPS, real-time PCR; type: cell-based, mice; settings: G79 100 ng/ml pre-treatment; 24 h after the challenge with LPS
Description: Neonates mice (day 8 after birth (P8)) were decapitated after anaesthetic IP injection and whole brains were removed aseptically. Cerebellum was separated from the rest of the brain and placed on a metal vibratome plate. Once the cerebellum was attached to the surface of the plate, 400 μm sagittal sections were cut using the vibratome. The slices were then transferred with a plastic Pasteur pipette to a cell culture plate containing an organotypic culture medium (5% CO2 in 50% basal medium with Earle's salt, 25% Hank's buffered salt solution, 25% inactivated horse serum, 5 mg/ml glucose, 0.25 mM L-glutamine and 25 μg/ml penicillin/streptomycin). After separating and isolating each slice, the cerebellar slices were then transferred to 6-well plates (3 slices for each well) containing a 30 mm culture plate insert with 0.4 μm pores (Millipore) and 1 ml full culture medium, pre-conditioned by incubation for at least 2 hours at 37° C., and 5% CO2 was added into each well below the insert. […]
Organotypic slices collected from the LPS stimulation experiment were homogenized in RNA lysis buffer. […] Primers and target-specific fluorescence-labeled TaqMan probes were purchased from Applied Biosystems (TaqMan Gene Expression assays). […] The expression of the gene tested was quantified relative to the level of the housekeeping gene GAPDH.

IL-1β = experiment: Neuroinflammation in vitro model, organotypic cerebellar culture challenged with LPS, ELISA; type: cell-based, mice; settings: G79 100 ng/ml pre-treatment; LPS 15 μg/ml
Description: (§3) Neonates mice (day 8 after birth (P8)) were decapitated after anaesthetic IP injection and whole brains were removed aseptically. Cerebellum was separated from the rest of the brain and placed on a metal vibratome plate. Once the cerebellum was attached to the surface of the plate, 400 μm sagittal sections were cut using the vibratome. The slices were then transferred with a plastic Pasteur pipette to a cell culture plate containing an organotypic culture medium (5% CO2 in 50% basal medium with Earle's salt, 25% Hank's buffered salt solution, 25% inactivated horse serum, 5 mg/ml glucose, 0.25 mM L-glutamine and 25 μg/ml penicillin/streptomycin). After separating and isolating each slice, the cerebellar slices were then transferred to 6-well plates (3 slices for each well) containing a 30 mm culture plate insert with 0.4 μm pores (Millipore) and 1 ml full culture medium, pre-conditioned by incubation for at least 2 hours at 37° C., and 5% CO2 was added into each well below the insert. The six-well plates were kept at 37° C. and under 5% CO2, and half the medium was replaced every 2 days. All the experiments were performed after 1 week of culture in such conditions.
(§4) After one week of organotypic cerebellum culture, the medium of each well was replaced with fresh medium and G79 (100 ng/ml) or placebo (physiologic solution) was added to the wells and kept in incubation for 1 hour. […]

TNFα = experiment: as above; type: cell-based, mice; settings: G79 100 ng/ml pre-treatment; LPS 15 μg/ml
Description: as §3, §4

Question: Which “competition with NGF for binding (MCF of G79-FITC)” value [1] does the source give for `CC(C)CN(CC(=O)N(CCCN1CCCC1=O)CC(N)=O)C(=O)CNCCc1ccccc1F` [Compound G79, [N-(2-(2′-Fluorophenyl)ethyl)glycyl]-[N-(2-methylpropyl)glycyl]-N-[3-(2′-oxopyrrolidinyl)propyl]glycinamide] here?
Answer: competes for the binding on the same NGF-receptors

Question: And the “binding on p75 (MCF of G79-FITC)” value (p75 receptor)?
Answer: could bind on p75 receptor

Question: What about the “binding on TrkA (MCF of G79-FITC)” value (TrkA) of the same molecule?
Answer: apparently does not compete with NGF for the binding on TrkA

Question: What about the “expression of iNOS compared to placebo pre-treated samples” value (iNOS) of the same molecule?
Answer: decrease in the expression of iNOS

Question: And the “release of IL-1β” value (IL-1β)?
Answer: did not affect the release of IL-1β

Question: And the “production of TNFα compared to placebo” value (TNFα)?
Answer: reduced at 6 and 12 hours
